# According to US20110263647A1 (AMGEN INC., priority 2009, published 2011):
# Where two headings read alike, the source gives them in different places.
# Tests used:
# CYP2D6 = biological target: T1, CYP2D6 (Homo sapiens, UniProt P10635); test: CYP2D6 inhibition assay (bufuralol, pooled human liver microsomes); format: in vitro ADME; details: pH 7.4, probe bufuralol (5 μM), test compound 3 μM, human liver microsomes 0.25 mg/mL
# T1 construct: tissue XenoTech LLC Lot 0610351; host or cells: pooled human liver microsomes
# T1 sequence (P10635 whole entry): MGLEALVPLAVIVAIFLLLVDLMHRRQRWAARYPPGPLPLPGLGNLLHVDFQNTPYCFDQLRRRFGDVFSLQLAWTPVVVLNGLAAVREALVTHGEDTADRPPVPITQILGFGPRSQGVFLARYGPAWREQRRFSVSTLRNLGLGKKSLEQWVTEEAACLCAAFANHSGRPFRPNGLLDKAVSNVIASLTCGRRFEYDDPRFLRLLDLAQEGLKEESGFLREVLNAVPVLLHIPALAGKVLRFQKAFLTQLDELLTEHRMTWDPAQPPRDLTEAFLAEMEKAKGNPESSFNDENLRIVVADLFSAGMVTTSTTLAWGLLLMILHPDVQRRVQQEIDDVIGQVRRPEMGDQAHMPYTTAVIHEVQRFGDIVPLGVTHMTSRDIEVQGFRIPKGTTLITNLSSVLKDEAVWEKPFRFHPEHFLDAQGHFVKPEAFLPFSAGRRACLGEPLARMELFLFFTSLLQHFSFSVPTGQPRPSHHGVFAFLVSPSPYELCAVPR
# Procedure: (§1) Midazolam was obtained from BD Gentest (Waltham, Mass.); 1′ hydroxy midazolam and 1-hydroxy bufuralol maleate were obtained from Ultrafine Chemicals (Manchester, UK); bufuralol HCl, ketoconazole, quinidine, potassium phosphate, and NADPH were obtained from Sigma (St. Louis, Mo.). Test compounds were prepared at 10 mM concentration in DMSO (Mallinckrodt Inc., St. Louis, Mo.). NADPH was prepared at 10 mM concentration in a pH 7.4 buffer (8.3 mg/mL 66.7 mM potassium phosphate). Midazolam was prepared at 1 mM concentration in deionized water (Amgen, Thousand Oaks, Calif.), and bufuralol was prepared at 2 mM concentration in deionized water. A stock solution of ketoconazole was prepared at 37 mM concentration in DMSO, and quinidine was prepared at 500 uM concentration in DMSO. Formic acid in acetonitrile (0.05%, ACN) was used as a quench solution (Sigma-Aldrich, St. Louis, Mo.). All solvents used for LC/MS were of chromatographic grade. Pooled human liver microsomes (Lot 0610351) were purchased from XenoTech LLC, (Lenexa, Kans.).
# Pooled human liver microsomes (0.25 mg/mL) were incubated at 37° C. in a phosphate buffer (66.7 mM potassium phosphate at pH 7.4) with the selective CYP2D6 substrate bufuralol at a concentration of 5 μM in the presence and absence of test compound (3 μM). The reaction was started with the addition of NADPH (1 mM final concentration). The reaction was stopped after 10 minutes by addition of formic acid in acetonitrile. 1-Hydroxybufuralol metabolite formation was measured by an HPLC MS detection method (mobile phases for HPLC were: 0.1% AcOH in 5% MeOH, and 0.1% AcOH in 95% MeOH; the HPLC column was an Onyx Monolithic C18 CHO-7645 HPLC column from Phenomenex; Shimadzu LC-10ADVP equipped Biomek FX Liquid handling system and CTC Analytics PAL well auto-sampler; Mass spectrometer: Applied Biosystems API 3000 using Analyst 1.4.1 software). Inhibition was determined by the ratio of the amount of 1-hydroxy bufuralol metabolite formed metabolite in the presence of test compound to the amount of metabolite in the absence of test compound.
# CYP3A4 = biological target: T2, CYP3A4 (Homo sapiens, UniProt P08684); test: CYP3A4 inhibition assay (midazolam, pooled human liver microsomes); format: in vitro ADME; details: pH 7.4, probe midazolam (2.5 μM), test compound 3 μM, human liver microsomes 0.1 mg/mL
# T2 construct: tissue XenoTech LLC Lot 0610351; host or cells: pooled human liver microsomes
# T2 sequence (P08684 whole entry): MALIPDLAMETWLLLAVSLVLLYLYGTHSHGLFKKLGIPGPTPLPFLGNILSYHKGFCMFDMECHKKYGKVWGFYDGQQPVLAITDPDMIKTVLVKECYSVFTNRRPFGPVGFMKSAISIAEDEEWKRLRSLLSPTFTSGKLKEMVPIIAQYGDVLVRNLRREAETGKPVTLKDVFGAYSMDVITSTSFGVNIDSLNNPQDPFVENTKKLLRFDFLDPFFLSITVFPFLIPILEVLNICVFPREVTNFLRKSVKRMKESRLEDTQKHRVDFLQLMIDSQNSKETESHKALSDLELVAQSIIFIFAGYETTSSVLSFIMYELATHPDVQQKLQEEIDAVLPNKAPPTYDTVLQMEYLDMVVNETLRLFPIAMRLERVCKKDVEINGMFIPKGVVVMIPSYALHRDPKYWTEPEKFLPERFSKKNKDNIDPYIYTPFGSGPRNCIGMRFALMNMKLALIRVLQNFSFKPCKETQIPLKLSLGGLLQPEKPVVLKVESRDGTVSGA
# Procedure: as §1
# Pooled human liver microsomes (0.1 mg/mL) were incubated at 37° C. in a phosphate buffer (66.7 mM potassium phosphate at pH 7.4) with the selective CYP3A substrate midazolam at a concentration of 2.5 μM in the presence and absence of test compound (3 μM). The reaction was started with the addition of NADPH (1 mM final concentration). The reaction was stopped after 10 minutes by addition of formic acid in acetonitrile. 1′-Hydroxymidazolam metabolite formation was measured by an HPLC MS detection method (mobile phases were 0.1% AcOH in 5% MeOH, and 0.1% AcOH in 95% MeOH; the HPLC column was an Onyx Monolithic C18 CHO-7645 HPLC column obtained from Phenomenex; Shimadzu LC-10ADVP equipped Biomek FX Liquid handling system and CTC Analytics PAL well auto-sampler; Mass spectrometer: Applied Biosystems API 3000 using Analyst 1.4.1 software). Inhibition was determined by the ratio of the amount of 1′-hydroxy midazolam metabolite formed in the presence of test compound to the amount of metabolite found in the absence of test compound Inhibition was measured relative to the rate of formation of 1′-hydroxy midazolam incubated at 2.5 μM without test compound.
# [1] = In vivo pharmacokinetics, IV and oral gavage; design: species or system male Sprague-Dawley rats; details: rat; for FPO: Table 5; for Fpo (%): Table 6; for clearance / AUC(0-t) / Cmax / Vd: male, Sprague-Dawley, plasma; for Vd: read-out: Vss
# Procedure: In vivo pharmacokinetic parameters were determined by measuring systemic plasma exposure in male Sprague-Dawley rats (Charles River Laboratories or Taconic, Oxnard, Calif.) by intravenous administration (N=3 fed rats: 2 mg/kg tail vein injection in DMSO) and oral gavage (N=3 fasted rats: 5 mg/kg in 1% Tween 80-2% HPMC-97% deionized water-pH 2.0 vehicle) (Comparative Example 18′ was only dosed IV and at 0.5 mg/kg). DMSO was obtained from Mallinckrodt Inc.; Tween 80 was obtained from Croda; HPMC is Methocel E50 Premium LV, obtained from Dow Excipients. Following oral administration, blood was drawn (250 μL) at 0.25, 0.5, 1, 2, 4, 6, 8, 12, and 16 hours. Following iv administration, blood was drawn (250 μL) at 0.083, 0.25, 0.5, 1, 2, 4, 6, 8, and 16 hours. Blood samples were drawn using a Culex® In Vivo Sampling System (BASi) and collected in BD Microtainer® tubes containing Lithium Heparin (BD). Plasma was obtained by centrifugation of blood at 14000 g and 2-8° C. for five minutes using an Eppendorf 5417R Centrifuge System. Plasma samples were mixed with 2× volume of acetonitrile (Sigma-Aldrich, St. Louis, Mo.). The mixture was stirred briefly using a vortex mixer and then centrifuged at 2867 g for 5 minutes in a Beckman Coulter Allegra 25R equipped with a Type S5700 rotor. The supernatant was removed and diluted 2× with mobile phase A (5/94.9/0.1 v/v/v MeOH/water/AcOH). Plasma concentrations were determined using liquid chromatography/tandem mass spectrometry, with electrospray ionization (ESI) and multiple reaction monitoring in the positive ion mode (Sciex API 3000 mass spectrometer connected to a Shimadzu LC-20AD pump and a LEAP PAL autosampler. Typical conditions used for HPLC were: mobile phase A=5/94.9/0.1 v/v/v MeOH/water/AcOH and mobile phase B=95/4.9/0.1 v/v/v MeOH/water/AcOH; HPLC column was a Varian MonoChrom C18.3μ for 2×30 mm and 51.1 for 2×50 mm) Instrument response was calibrated by a standard curve over 0.1-2000 ng/mL concentration range, and the lower limit of quantitation was 0.1-2.5 ng/mL. Peak areas were integrated on a Windows 2000 computer using the Sciex program Analyst® (Version 1.4.1). Following peak area integration, the data were exported to the software package (Watson® Non-GLP PROD (Version 7.0.0.01, Thermo Electron Corp., Waltham, Mass.)), where concentrations were determined by a weighted linear regression of peak area versus the nominal concentrations of the calibration standards. Calculations were performed on unrounded numbers. The Watson® Non-GLP PROD software was used to determine precision and accuracy for the calibration standards. Noncompartmental analysis of plasma concentration data was used to generate PK parameters such as clearance (CL, L/h/kg), volume of distribution (Vss, L/kg), area under the curve (AUC, ng·h/mL) and secondary parameters such as half-life (t1/2, h) and oral bioavailability (% F, %). This was done using WinNonlin Enterprise software (Version 5.1.1, from Pharsight Corp., Mountain View, Calif.). References for pharmacokinetic analysis include: Gabrielsson and Weiner (1997) Pharmacokinetic and Pharmacodynamic Data Analysis Concepts and Applications, 2nd ed., Swedish Pharmaceutical Press, Stockholm; Gibaldi and Perrier (1982) Pharmacokinetics, 2nd ed., Marcel Dekker, New York. Rowland and Tozer (1995) Clinical Pharmacokinetics: Concepts and Applications, 3rd ed., Lippincott Williams & Wilkins, Philadelphia.
# [2] = IV 2 mg/kg, read-out: IV AUClast
# [3] = PO 5 mg/kg, read-out: Oral AUClast
# [4] = PO 5 mg/kg, read-out: Oral Cmax
SMILES,"inhibition at 10 min, 3 μM (CYP2D6)","inhibition at 10 min, 3 μM (CYP3A4)","FPO ([1]; PO 5 mg/kg, IV 2 mg/kg)","Fpo (%) ([1]; PO 5 mg/kg, IV 2 mg/kg)",clearance ([1]; IV 2 mg/kg),"AUC(0-t) [1, 2]","Cmax ([1]; IV 2 mg/kg, read-out: IV Cmax)",Vd ([1]; IV 2 mg/kg),"AUC(0-t) [1, 3]","Cmax [1, 4]"
"C[C@@H](c1ccc(C(F)(F)F)cc1)[C@H](N)CNc1ncc(-c2ccc3cnccc3c2)s1 [10′, reference compound]",86%,94%,12%,25%,19.1 mL/min/kg,1680 ng·h/mL,730 ng/mL,9.46 L/kg,487 ng·h/mL,73 ng/mL
"N[C@H](CNc1ncc(-c2ccc3cnccc3c2)s1)Cc1ccc(C(F)(F)F)cc1 [4′, reference compound]",78%,87%,27%,20%,50.9 mL/min/kg,651 ng·h/mL,422 ng/mL,6.17 L/kg,432 ng·h/mL,86 ng/mL
"COCc1nc(NC[C@@H](N)Cc2ccc(C(F)(F)F)cc2)sc1-c1ccc2cnccc2c1 [24′, reference compound]",94%,100%,14%,19%,90.1 mL/min/kg,369 ng·h/mL,465 ng/mL,10.2 L/kg,129 ng·h/mL,51 ng/mL
"N[C@H](CNc1ncc(-c2ccc3cnccc3c2)s1)Cc1ccc(C(F)(F)F)nc1 [2′, reference compound]",94%,100%,5%,5%,37.4 mL/min/kg,870 ng·h/mL,1260 ng/mL,2.32 L/kg,117 ng·h/mL,29 ng/mL
"CC(F)(F)c1ccc(C[C@H](N)CNc2ncc(-c3ccc4cnccc4c3)s2)cn1 [7′, reference compound]",79%,86%,4%,3%,97.9 mL/min/kg,336 ng·h/mL,490 ng/mL,4.55 L/kg,30 ng·h/mL,8 ng/mL

# Further lines, results first:
"inhibition at 10 min, 3 μM (CYP2D6)","inhibition at 10 min, 3 μM (CYP3A4)","FPO ([1]; PO 5 mg/kg, IV 2 mg/kg)","Fpo (%) ([1]; PO 5 mg/kg, IV 2 mg/kg)",clearance ([1]; IV 2 mg/kg),"AUC(0-t) [1, 2]","Cmax ([1]; IV 2 mg/kg, read-out: IV Cmax)",Vd ([1]; IV 2 mg/kg),"AUC(0-t) [1, 3]","Cmax [1, 4]",SMILES
75%,94%,51%,45%,41.5 mL/min/kg,787 ng·h/mL,816 ng/mL,0.766 L/kg,1000 ng·h/mL,138 ng/mL,"N[C@H](CNc1ncc(-c2ccc3cnccc3c2)s1)Cc1ccc(Cl)c(F)c1 [44′, reference compound]"
88%,91%,12%,10%,47.5 mL/min/kg,691 ng·h/mL,797 ng/mL,4.18 L/kg,199 ng·h/mL,23 ng/mL,"N[C@H](CNc1ncc(-c2ccc3cnccc3c2)s1)[C@@H](CO)c1ccc(C(F)(F)F)cc1 [33′, reference compound]"
88%,86%,4%,4%,108 mL/min/kg,299 ng·h/mL,412 ng/mL,6.67 L/kg,30 ng·h/mL,13 ng/mL,"CC(F)(F)c1ccc([C@H](O)[C@H](N)CNc2ncc(-c3ccc4cnccc4c3)s2)cc1 [38′, reference compound]"
81%,94%,146%,65%,85.6 mL/min/kg,359 ng·h/mL,284 ng/mL,8.78 L/kg,1310 ng·h/mL,153 ng/mL,"N[C@H](CNc1ncc(-c2ccc3cnccc3c2)s1)CN1CCC(C(F)(F)F)CC1 [Comparative Example 25′, reference compound]"
86%,72%,20%,19%,150 mL/min/kg,221 ng·h/mL,347 ng/mL,13.2 L/kg,113 ng·h/mL,27 ng/mL,"N[C@H](CCc1ncc(-c2ccc3cnccc3c2)s1)[C@@H](O)c1ccc(C(F)(F)F)cc1 [36′, reference compound]"
